Experimental findings from publication PMC5974244, “Tumour-associated missense mutations in the dMi-2 ATPase alters nucleosome remodelling properties in a mutation-specific manner” (Nature Communications, 2018) are described below.

The target in assay [1] is T1, dMi-2 (Drosophila melanogaster, UniProt O97159, V538F).
T1 construct: gene Mi-2; FLAG-tagged dMi-2 (no truncation stated), baculovirus / Sf9 cells, anti-FLAG purified, FLAG peptide elution
Nature of the assay: nitrocellulose filter binding with [gamma-32P]ATP. To be noted: labelled compound; same 90 nM protein, 0.25 mM MgCl2, 26 °C; printed as V558F (human CHD4 numbering).

For assay [2], the target named is T2, dMi-2 (Drosophila melanogaster, UniProt O97159).
T2 construct: gene Mi-2; FLAG-tagged dMi-2 (no truncation stated), baculovirus / Sf9 cells, anti-FLAG purified, FLAG peptide elution
Kind of assay: nitrocellulose filter binding with [gamma-32P]ATP. To be noted: labelled compound; 90 nM protein, 0.25 mM MgCl2, 100 mM KCl, 20 mM HEPES, 26 °C; competition by cold ATP.

Assay [3] has as its target T3, dMi-2 (Drosophila melanogaster, UniProt O97159, R1164Q).
T3 construct: gene Mi-2; FLAG-tagged dMi-2 (no truncation stated), baculovirus / Sf9 cells, anti-FLAG purified, FLAG peptide elution
Nature of the assay: nitrocellulose filter binding with [gamma-32P]ATP. To be noted: labelled compound; same 90 nM protein, 0.25 mM MgCl2, 26 °C; printed as R1162Q (human CHD4 numbering).

Assay [4] deals with T4, dMi-2 (Drosophila melanogaster, UniProt O97159, L914V).
T4 construct: gene Mi-2; FLAG-tagged dMi-2 (no truncation stated), baculovirus / Sf9 cells, anti-FLAG purified, FLAG peptide elution
Kind of assay: nitrocellulose filter binding with [gamma-32P]ATP. To be noted: labelled compound; same 90 nM protein, 0.25 mM MgCl2, 26 °C; printed as L912V (human CHD4 numbering).

In assay [5] the target is T5, dMi-2 (Drosophila melanogaster, UniProt O97159, R552Q).
T5 construct: gene Mi-2; FLAG-tagged dMi-2 (no truncation stated), baculovirus / Sf9 cells, anti-FLAG purified, FLAG peptide elution
Nature of the assay: nitrocellulose filter binding with [gamma-32P]ATP. To be noted: labelled compound; same 90 nM protein, 0.25 mM MgCl2, 26 °C; printed as R572Q (human CHD4 numbering; also as R572Y in places, primer encodes Q).

Assay [6] concerns the target T6, dMi-2 (Drosophila melanogaster, UniProt O97159, C452Y).
T6 construct: gene Mi-2; FLAG-tagged dMi-2 (no truncation stated), baculovirus / Sf9 cells, anti-FLAG purified, FLAG peptide elution
Kind of assay: nitrocellulose filter binding with [gamma-32P]ATP. To be noted: labelled compound; same 90 nM protein, 0.25 mM MgCl2, 26 °C; printed as C464Y (human CHD4 numbering).

The target in assay [7] is T7, dMi-2 (Drosophila melanogaster, UniProt O97159, H1153R).
T7 construct: gene Mi-2; FLAG-tagged dMi-2 (no truncation stated), baculovirus / Sf9 cells, anti-FLAG purified, FLAG peptide elution
Nature of the assay: nitrocellulose filter binding with [gamma-32P]ATP. To be noted: labelled compound; same 90 nM protein, 0.25 mM MgCl2, 26 °C; printed as H1151R (human CHD4 numbering).

For assay [8], the target named is T2, dMi-2. Nature of the assay: ATPase assay, TLC of [gamma-32P]ATP. To be noted: labelled compound as tracer; 20 µM ATP, saturating polynucleosomes, 26 °C, 30 min. Format: biochemical.
Assay [9] deals with T8, dMi-2 (Drosophila melanogaster, UniProt O97159, H1198Y).
T8 construct: gene Mi-2; FLAG-tagged dMi-2 (no truncation stated), baculovirus / Sf9 cells, anti-FLAG purified, FLAG peptide elution
Nature of the assay: nitrocellulose filter binding with [gamma-32P]ATP. To be noted: labelled compound; same 90 nM protein, 0.25 mM MgCl2, 26 °C; printed as H1196Y (human CHD4 numbering).

Assay [10] addresses T9, dMi-2 (Drosophila melanogaster, UniProt O97159, L1217P).
T9 construct: gene Mi-2; FLAG-tagged dMi-2 (no truncation stated), baculovirus / Sf9 cells, anti-FLAG purified, FLAG peptide elution
Kind of assay: nitrocellulose filter binding with [gamma-32P]ATP. To be noted: labelled compound; same 90 nM protein, 0.25 mM MgCl2, 26 °C; printed as L1215P (human CHD4 numbering).

T2 sequence (O97159 whole entry, the tested form may be a part): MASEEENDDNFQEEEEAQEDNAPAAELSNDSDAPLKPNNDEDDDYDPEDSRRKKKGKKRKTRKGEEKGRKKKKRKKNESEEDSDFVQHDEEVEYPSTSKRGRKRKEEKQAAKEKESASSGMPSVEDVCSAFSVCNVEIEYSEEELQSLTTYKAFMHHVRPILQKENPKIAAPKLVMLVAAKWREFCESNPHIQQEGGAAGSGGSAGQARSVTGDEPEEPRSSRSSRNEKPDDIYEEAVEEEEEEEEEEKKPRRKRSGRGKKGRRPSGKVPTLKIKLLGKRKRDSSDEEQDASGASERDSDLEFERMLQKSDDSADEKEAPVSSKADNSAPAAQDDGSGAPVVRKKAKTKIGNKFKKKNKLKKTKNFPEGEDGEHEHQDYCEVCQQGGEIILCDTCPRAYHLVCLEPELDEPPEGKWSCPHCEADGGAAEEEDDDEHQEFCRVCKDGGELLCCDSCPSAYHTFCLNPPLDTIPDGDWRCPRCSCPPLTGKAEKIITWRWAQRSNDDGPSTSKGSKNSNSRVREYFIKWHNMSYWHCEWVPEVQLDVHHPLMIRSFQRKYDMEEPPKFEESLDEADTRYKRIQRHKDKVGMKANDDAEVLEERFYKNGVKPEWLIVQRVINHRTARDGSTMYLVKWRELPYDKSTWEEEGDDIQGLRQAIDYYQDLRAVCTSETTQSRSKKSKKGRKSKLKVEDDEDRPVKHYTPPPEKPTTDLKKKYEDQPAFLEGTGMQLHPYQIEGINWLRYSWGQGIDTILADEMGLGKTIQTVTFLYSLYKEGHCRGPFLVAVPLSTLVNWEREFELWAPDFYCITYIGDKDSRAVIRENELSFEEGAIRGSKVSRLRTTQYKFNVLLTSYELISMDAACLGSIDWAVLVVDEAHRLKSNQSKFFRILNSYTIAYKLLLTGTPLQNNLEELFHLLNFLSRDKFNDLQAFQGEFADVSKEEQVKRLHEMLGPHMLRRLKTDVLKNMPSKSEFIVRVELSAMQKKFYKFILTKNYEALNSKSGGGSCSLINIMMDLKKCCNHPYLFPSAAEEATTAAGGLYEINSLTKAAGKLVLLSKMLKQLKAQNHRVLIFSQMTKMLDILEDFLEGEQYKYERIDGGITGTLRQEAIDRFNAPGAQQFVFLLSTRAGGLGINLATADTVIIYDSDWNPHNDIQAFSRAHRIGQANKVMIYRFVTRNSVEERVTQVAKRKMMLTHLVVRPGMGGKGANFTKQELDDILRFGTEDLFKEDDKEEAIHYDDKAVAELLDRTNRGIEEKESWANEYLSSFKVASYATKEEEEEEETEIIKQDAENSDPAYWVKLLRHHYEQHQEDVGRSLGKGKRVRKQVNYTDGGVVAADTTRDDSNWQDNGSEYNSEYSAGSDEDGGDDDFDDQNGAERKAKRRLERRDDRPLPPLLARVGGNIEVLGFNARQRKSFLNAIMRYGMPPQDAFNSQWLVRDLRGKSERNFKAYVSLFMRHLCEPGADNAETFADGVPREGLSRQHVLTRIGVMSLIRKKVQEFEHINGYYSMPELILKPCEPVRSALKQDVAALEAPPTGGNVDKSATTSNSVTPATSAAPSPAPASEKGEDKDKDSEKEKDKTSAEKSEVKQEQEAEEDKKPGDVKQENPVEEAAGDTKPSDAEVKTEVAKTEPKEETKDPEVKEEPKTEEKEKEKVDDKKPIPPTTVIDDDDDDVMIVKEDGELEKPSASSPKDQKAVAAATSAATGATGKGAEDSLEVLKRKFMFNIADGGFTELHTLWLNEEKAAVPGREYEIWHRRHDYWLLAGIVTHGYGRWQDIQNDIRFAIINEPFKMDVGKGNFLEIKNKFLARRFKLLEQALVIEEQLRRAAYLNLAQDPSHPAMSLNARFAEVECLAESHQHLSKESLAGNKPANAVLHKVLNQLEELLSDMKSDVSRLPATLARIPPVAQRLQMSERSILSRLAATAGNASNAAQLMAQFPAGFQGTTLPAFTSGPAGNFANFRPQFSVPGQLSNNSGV
T8 sequence (O97159 whole entry H1198Y, the tested form may be a part): as the sequence (O97159 whole entry, the tested form may be a part) above, with H1198Y counted along it
T1 sequence (O97159 whole entry V538F, the tested form may be a part): as the sequence (O97159 whole entry, the tested form may be a part) above, with V538F counted along it
T9 sequence (O97159 whole entry L1217P, the tested form may be a part): as the sequence (O97159 whole entry, the tested form may be a part) above, with L1217P counted along it
T4 sequence (O97159 whole entry L914V, the tested form may be a part): as the sequence (O97159 whole entry, the tested form may be a part) above, with L914V counted along it
T5 sequence (O97159 whole entry R552Q, the tested form may be a part): as the sequence (O97159 whole entry, the tested form may be a part) above, with R552Q counted along it
T3 sequence (O97159 whole entry R1164Q, the tested form may be a part): as the sequence (O97159 whole entry, the tested form may be a part) above, with R1164Q counted along it
T6 sequence (O97159 whole entry C452Y, the tested form may be a part): as the sequence (O97159 whole entry, the tested form may be a part) above, with C452Y counted along it
T7 sequence (O97159 whole entry H1153R, the tested form may be a part): as the sequence (O97159 whole entry, the tested form may be a part) above, with H1153R counted along it

Consider `Nc1ncnc2c1ncn2[C@@H]1O[C@H](COP(=O)(O)OP(=O)(O)OP(=O)(O)O)[C@@H](O)[C@H]1O` [ATP], for which the “% of WT ATP binding activity” value in [1], in assay [3], in [4], in assay [6], in assay [7] and in [9] was “Most dMi-2 mutants displayed robust ATP binding activity” each time. Besides, in [10], the “% of WT ATP binding activity” value is “Most dMi-2 mutants displayed robust ATP binding activity”. In addition, the “nitrocellulose filter binding with [gamma-32P]ATP” value in [2] was “Binding of WT dMi-2 to radioactively labelled ATP was efficiently competed by an excess of”. Besides, in [5], the “% of WT binding activity” value is on record as 32%. Also, the “ATPase assay, TLC of [gamma-32P]ATP” value in assay [8] is on record as “We performed ATPase assays in the absence or presence of saturating amounts of salt dialysis-assembled”.
